Measurements: patent US20120277161A1, “INHIBITION OF MULTIPLE CELL ACTIVATION PATHWAYS” (INTER-K PTY LIMITED, priority 2009, published 2012)
Values belong to the compound of their own block, whether it stands above or below them.

Assays:
Format in all cases: biochemical
[1] = target: human ERK2 (Homo sapiens, UniProt P28482); experiment: ERK2 kinase activity assay (cell-free)
Protocol: (§1) In a final reaction volume of 25 μL, human ERK2 (5-10 mU) is incubated with 25 mM Tris pH 7.5, 0.02 mM EGTA, 0.33 mg/mL myelin basic protein, 10 mM MgAcetate and [γ-33P-ATP] (specific activity approx. 500 cpm/pmol, concentration as required). The reaction is initiated by the addition of the MgATP mix. After incubation for 40 minutes at room temperature, the reaction is stopped by the addition of 5 μL of a 3% phosphoric acid solution. 10 μL of the reaction is then spotted onto a P30 filtermat and washed three times for 5 minutes in 75 mM phosphoric acid and once in methanol prior to drying and scintillation counting.

[2] = target: PI3K P110δ (Homo sapiens, UniProt O00329); experiment: PI3K HTRF activity assay
Protocol: (§2) In a final reaction volume of 20 μL, the test PI3K is incubated in assay buffer containing 10 μM phosphatidylinositol-4,5-bisphosphate and MgATP. The reaction is initiated by the addition of the MgATP mix. After incubation for 30 minutes at room temperature, the reaction is stopped by the addition of 5 μL of stop solution containing EDTA and biotinylated phosphatidylinositol-3,4,5-trisphosphate. Finally, 5 μL of detection buffer is added (containing europium-labelled anti-GST monoclonal antibody, GST-tagged GRP1 PH domain and streptavidin-allophycocyanin). The test plate is then read in time-resolved fluorescence mode and the homogenous time-resolved fluorescence (HTRF) signal is determined according to the formula HTRF=10000×(Em665 nm/Em620 nm).

[3] = target: PI3K beta (Homo sapiens, UniProt P42338); experiment: PI3K HTRF activity assay
Protocol: as §2

[4] = target: c-RAF (h) (Homo sapiens, UniProt P04049); experiment: c-RAF kinase activity assay
Protocol: as §1, with “c-RAF (h)” for “human ERK2”, “0.66” for “0.33”

[5] = target: PKB beta (Homo sapiens, UniProt P31751); experiment: PKB kinase activity assay
Protocol: (§3) In a final reaction volume of 25 μL, PKB(h) (5-10 mU) is incubated with 8 mM MOPS pH 7.0, 0.2 mM EDTA, 30 μM GRPRTSSFAEGKK (SEQ ID No. 26), 10 mM MgAcetate and [γ-33P-ATP] (specific activity approx. 500 cpm/pmol, concentration as required). The reaction is initiated by the addition of the MgATP mix. After incubation for 40 minutes at room temperature, the reaction is stopped by the addition of 5 μL of a 3% phosphoric acid solution. 10 μL of the reaction mixture is then spotted onto a P30 filtermat and washed three times for 5 minutes in 75 mM phosphoric acid and once in methanol prior to drying and scintillation counting.

[6] = target: PKB gamma (Homo sapiens, UniProt Q9Y243); experiment: PKB kinase activity assay
Protocol: as §3

[7] = target: PKC alpha (Homo sapiens, UniProt P17252); experiment: PKC kinase activity assay
Protocol: (§4) In a final reaction volume of […] PKC kinase (h) (5-10 mU) is incubated with 20 mM HEPES pH 7.4, 0.03% Triton X-100, […], 0.1 mg/mL phosphatidylserine, 10 μg/mL diacylglycerol, 0.1 mg/mL histone H1 or 50 μM of the peptide ERMRPRKRQGSVRRRV (SEQ ID No. 20), 10 mM MgAcetate and [γ-33P-ATP] (specific activity approx. 500 cpm/pmol, concentration as required). The reaction is initiated by the addition of the MgATP mix. After incubation for 40 minutes at room temperature, the reaction is stopped by the addition of 5 μL of a 3% phosphoric acid solution. 10 μL of the reaction is then spotted onto a P30 filtermat and washed three times for 5 minutes in 75 mM phosphoric acid and once in methanol prior to drying and scintillation counting.

[8] = target: PKC beta I (Homo sapiens, UniProt P05771); experiment: PKC kinase activity assay
Protocol: as §4

[9] = target: PKC beta II (Homo sapiens, UniProt P05771); experiment: PKC kinase activity assay
Protocol: as §4

PKB gamma, sequence (Q9Y243 whole entry): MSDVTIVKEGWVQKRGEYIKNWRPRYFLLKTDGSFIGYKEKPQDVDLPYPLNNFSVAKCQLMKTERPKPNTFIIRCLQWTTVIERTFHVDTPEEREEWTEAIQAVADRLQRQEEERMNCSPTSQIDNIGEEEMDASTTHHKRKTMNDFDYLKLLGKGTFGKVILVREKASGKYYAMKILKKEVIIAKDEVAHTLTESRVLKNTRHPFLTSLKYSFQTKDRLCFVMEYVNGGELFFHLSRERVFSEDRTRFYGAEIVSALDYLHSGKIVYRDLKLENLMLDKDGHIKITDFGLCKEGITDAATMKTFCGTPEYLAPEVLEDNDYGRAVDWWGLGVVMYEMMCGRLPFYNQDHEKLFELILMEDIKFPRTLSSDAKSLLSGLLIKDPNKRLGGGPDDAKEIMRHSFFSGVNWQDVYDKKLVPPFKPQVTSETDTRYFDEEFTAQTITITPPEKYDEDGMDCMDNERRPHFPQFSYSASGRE
PKC beta I, sequence (P05771 whole entry): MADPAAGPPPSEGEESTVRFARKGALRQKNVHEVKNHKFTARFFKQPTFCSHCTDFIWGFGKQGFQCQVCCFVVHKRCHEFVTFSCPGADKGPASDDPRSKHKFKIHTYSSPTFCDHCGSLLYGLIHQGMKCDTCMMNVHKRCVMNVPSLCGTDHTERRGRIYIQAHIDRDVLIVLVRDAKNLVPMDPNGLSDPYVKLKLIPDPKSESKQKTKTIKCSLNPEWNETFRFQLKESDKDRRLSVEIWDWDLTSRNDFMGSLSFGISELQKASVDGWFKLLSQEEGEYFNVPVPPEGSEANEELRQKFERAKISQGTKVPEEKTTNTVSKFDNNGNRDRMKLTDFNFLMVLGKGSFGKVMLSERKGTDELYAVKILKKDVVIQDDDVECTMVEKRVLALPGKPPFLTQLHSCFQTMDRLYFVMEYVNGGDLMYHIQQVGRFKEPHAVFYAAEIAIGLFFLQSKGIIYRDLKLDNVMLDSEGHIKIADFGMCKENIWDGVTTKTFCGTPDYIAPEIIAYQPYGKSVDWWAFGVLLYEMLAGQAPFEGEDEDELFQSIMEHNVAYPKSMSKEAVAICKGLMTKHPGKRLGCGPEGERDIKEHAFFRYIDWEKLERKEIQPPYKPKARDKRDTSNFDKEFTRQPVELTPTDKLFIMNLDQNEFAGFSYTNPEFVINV
PKC beta II, sequence (P05771 1-673 isoform P05771-2): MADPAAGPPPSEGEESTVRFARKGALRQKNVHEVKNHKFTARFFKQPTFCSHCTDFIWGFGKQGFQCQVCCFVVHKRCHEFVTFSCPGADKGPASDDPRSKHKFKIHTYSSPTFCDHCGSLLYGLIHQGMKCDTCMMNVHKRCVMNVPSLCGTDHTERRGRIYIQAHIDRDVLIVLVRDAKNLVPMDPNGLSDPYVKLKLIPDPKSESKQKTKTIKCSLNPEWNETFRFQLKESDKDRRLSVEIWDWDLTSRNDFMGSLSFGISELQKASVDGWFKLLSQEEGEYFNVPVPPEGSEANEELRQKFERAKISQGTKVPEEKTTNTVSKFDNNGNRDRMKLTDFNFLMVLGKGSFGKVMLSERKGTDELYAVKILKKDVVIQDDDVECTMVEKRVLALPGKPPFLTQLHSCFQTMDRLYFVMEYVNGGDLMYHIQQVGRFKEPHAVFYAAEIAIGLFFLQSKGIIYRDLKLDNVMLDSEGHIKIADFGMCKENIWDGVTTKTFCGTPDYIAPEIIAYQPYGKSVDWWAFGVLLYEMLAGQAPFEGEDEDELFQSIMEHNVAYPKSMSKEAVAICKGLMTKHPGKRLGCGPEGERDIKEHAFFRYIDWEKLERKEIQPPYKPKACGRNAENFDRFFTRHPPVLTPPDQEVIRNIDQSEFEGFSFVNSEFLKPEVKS
PI3K P110δ, sequence (O00329 whole entry, the tested form may be a part): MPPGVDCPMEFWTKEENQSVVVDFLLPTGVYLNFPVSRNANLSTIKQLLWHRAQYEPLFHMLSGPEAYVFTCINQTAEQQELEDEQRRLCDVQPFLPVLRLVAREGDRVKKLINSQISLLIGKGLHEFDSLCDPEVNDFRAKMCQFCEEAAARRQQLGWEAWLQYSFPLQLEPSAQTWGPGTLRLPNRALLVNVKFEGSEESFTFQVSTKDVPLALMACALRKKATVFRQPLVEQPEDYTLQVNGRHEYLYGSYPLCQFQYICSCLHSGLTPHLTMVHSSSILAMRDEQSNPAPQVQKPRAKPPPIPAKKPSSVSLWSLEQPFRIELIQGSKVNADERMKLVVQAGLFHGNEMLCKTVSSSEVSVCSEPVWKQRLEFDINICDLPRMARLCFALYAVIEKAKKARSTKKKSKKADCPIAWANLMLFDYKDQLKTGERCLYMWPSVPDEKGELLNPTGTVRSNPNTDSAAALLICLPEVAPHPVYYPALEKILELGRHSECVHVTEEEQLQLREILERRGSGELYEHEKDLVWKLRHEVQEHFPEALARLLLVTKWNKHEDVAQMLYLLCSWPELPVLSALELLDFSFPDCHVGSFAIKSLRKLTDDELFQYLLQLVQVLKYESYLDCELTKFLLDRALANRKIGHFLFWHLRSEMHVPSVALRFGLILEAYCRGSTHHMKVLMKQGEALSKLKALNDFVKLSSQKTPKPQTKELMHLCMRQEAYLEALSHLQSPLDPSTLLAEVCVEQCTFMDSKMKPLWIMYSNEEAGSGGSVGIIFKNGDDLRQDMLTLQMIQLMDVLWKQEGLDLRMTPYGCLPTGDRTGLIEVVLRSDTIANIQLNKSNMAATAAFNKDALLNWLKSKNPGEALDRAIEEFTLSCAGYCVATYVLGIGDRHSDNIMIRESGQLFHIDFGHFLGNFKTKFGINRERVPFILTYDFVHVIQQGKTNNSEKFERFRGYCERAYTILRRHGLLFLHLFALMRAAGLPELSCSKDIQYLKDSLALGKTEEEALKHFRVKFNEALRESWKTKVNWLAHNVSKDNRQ
PI3K P110δ, sequence (P27986 whole entry partner, the tested form may be a part): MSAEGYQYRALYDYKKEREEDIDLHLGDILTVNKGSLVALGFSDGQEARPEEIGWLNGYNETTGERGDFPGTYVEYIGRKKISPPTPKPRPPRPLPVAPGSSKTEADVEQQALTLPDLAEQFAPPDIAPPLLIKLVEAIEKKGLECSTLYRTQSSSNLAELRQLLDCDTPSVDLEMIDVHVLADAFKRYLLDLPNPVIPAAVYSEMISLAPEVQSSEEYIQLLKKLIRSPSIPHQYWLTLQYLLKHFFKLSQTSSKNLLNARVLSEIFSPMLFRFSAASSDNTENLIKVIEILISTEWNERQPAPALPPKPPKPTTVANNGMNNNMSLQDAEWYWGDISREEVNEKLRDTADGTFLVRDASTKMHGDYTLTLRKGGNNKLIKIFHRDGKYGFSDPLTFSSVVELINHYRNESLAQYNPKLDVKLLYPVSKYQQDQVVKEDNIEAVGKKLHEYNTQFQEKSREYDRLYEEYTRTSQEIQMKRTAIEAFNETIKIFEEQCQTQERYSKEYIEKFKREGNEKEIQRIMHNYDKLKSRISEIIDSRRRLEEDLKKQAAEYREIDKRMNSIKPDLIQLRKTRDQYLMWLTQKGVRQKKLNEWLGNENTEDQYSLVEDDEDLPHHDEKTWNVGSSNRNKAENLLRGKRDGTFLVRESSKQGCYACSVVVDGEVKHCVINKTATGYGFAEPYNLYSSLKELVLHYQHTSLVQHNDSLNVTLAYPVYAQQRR
PKB beta, sequence (P31751 whole entry): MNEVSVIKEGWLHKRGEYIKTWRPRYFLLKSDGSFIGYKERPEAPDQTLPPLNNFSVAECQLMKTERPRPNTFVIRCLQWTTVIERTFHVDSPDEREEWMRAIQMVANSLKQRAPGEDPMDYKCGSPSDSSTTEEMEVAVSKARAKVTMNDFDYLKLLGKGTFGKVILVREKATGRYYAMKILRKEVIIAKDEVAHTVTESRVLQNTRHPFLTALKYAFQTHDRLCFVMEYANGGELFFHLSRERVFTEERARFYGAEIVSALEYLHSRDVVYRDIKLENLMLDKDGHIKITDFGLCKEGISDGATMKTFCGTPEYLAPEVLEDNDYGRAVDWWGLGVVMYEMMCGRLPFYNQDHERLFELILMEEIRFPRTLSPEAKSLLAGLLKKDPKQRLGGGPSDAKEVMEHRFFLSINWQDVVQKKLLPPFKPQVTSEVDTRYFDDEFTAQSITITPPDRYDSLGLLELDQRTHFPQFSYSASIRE

% Kinase inhibition ERK2 ([1]; 20 μM, relative to control): 37% | Percentage (%) kinase inhibition PI3K P110δ ([2]; dendrimer conc. 1 μM): 39% | Percentage (%) kinase inhibition PI3K P110δ ([2]; dendrimer conc. 2 μM): 56% | Percentage (%) kinase inhibition PI3K P110δ ([2]; dendrimer conc. 250 nm): 9% | Percentage (%) kinase inhibition PI3K P110δ ([2]; dendrimer conc. 500 nm): 25% | PI3K beta % inhibition ([3]; 20 μM final concentration): approx. 92% | Percentage (%) kinase inhibition PI3K P110β ([3]; dendrimer conc. 1 μM): 39% | Percentage (%) kinase inhibition PI3K P110β ([3]; dendrimer conc. 2 μM): 53% | Percentage (%) kinase inhibition PI3K P110β ([3]; dendrimer conc. 250 nm): 28% | Percentage (%) kinase inhibition PI3K P110β ([3]; dendrimer conc. 500 nm): 34% | % Kinase inhibition c-RAF ([4]; 20 μM, relative to control): 93% | Percentage (%) kinase inhibition c-RAF ([4]; dendrimer conc. 1 μM): 79% | Percentage (%) kinase inhibition c-RAF ([4]; dendrimer conc. 2 μM): 81% | Percentage (%) kinase inhibition c-RAF ([4]; dendrimer conc. 250 nm): 64% | Percentage (%) kinase inhibition c-RAF ([4]; dendrimer conc. 500 nm): 74% | % Kinase inhibition PKB beta ([5]; 20 μM, relative to control): 85% | Percentage (%) kinase inhibition PKB beta ([5]; dendrimer conc. 1 μM): 68% | Percentage (%) kinase inhibition PKB beta ([5]; dendrimer conc. 2 μM): 70% | Percentage (%) kinase inhibition PKB beta ([5]; dendrimer conc. 250 nm): 53% | Percentage (%) kinase inhibition PKB beta ([5]; dendrimer conc. 500 nm): 66% | % Kinase inhibition PKB gamma ([6]; 20 μM, relative to control): 96% | Percentage (%) kinase inhibition PKB gamma ([6]; dendrimer conc. 1 μM): 93% | Percentage (%) kinase inhibition PKB gamma ([6]; dendrimer conc. 2 μM): 92% | Percentage (%) kinase inhibition PKB gamma ([6]; dendrimer conc. 250 nm): 94% | Percentage (%) kinase inhibition PKB gamma ([6]; dendrimer conc. 500 nm): 98% | % Kinase inhibition PKC alpha ([7]; 20 μM, relative to control): 98% | Percentage (%) kinase inhibition PKC alpha ([7]; dendrimer conc. 1 μM): 83% | Percentage (%) kinase inhibition PKC alpha ([7]; dendrimer conc. 2 μM): 98% | Percentage (%) kinase inhibition PKC alpha ([7]; dendrimer conc. 250 nm): 23% | Percentage (%) kinase inhibition PKC alpha ([7]; dendrimer conc. 500 nm): 45% | % Kinase inhibition PKC beta I ([8]; 20 μM, relative to control): 98% | Percentage (%) kinase inhibition PKC beta I ([8]; dendrimer conc. 1 μM): 80% | Percentage (%) kinase inhibition PKC beta I ([8]; dendrimer conc. 2 μM): 96% | Percentage (%) kinase inhibition PKC beta I ([8]; dendrimer conc. 250 nm): 19% | Percentage (%) kinase inhibition PKC beta I ([8]; dendrimer conc. 500 nm): 35% | % Kinase inhibition PKC beta II ([9]; 20 μM, relative to control): 83% | Percentage (%) kinase inhibition PKC beta II ([9]; dendrimer conc. 1 μM): 82% | Percentage (%) kinase inhibition PKC beta II ([9]; dendrimer conc. 2 μM): 95% | Percentage (%) kinase inhibition PKC beta II ([9]; dendrimer conc. 250 nm): 22% | Percentage (%) kinase inhibition PKC beta II ([9]; dendrimer conc. 500 nm): 44%
Compound: Dend 10-10(4) whose RSKAKNPLYR peptides are entirely D-amino acids and pegylated with two ethylene glycol units [Dend 10-10(4)DP]

Compound: CC(C)C[C@H](NC(=O)[C@@H]1CCCN1C(=O)[C@H](CC(N)=O)NC(=O)[C@H](CCCCN)NC(=O)[C@H](C)NC(=O)[C@H](CCCCN)NC(=O)[C@H](CO)NC(=O)[C@@H](N)CCCNC(=N)N)C(=O)N[C@@H](Cc1ccc(O)cc1)C(=O)N[C@@H](CCCNC(=N)N)C(=O)NCCCC[C@H](NC(=O)[C@H](CCCCNC(=O)[C@H](CCCCNC(=O)[C@H](CCCNC(=N)N)NC(=O)[C@H](Cc1ccc(O)cc1)NC(=O)[C@H](CC(C)C)NC(=O)[C@@H]1CCCN1C(=O)[C@H](CC(N)=O)NC(=O)[C@H](CCCCN)NC(=O)[C@H](C)NC(=O)[C@H](CCCCN)NC(=O)[C@H](CO)NC(=O)[C@@H](N)CCCNC(=N)N)NC(=O)[C@H](CCCNC(=N)N)NC(=O)[C@H](Cc1ccc(O)cc1)NC(=O)[C@H](CC(C)C)NC(=O)[C@@H]1CCCN1C(=O)[C@H](CC(N)=O)NC(=O)[C@H](CCCCN)NC(=O)[C@H](C)NC(=O)[C@H](CCCCN)NC(=O)[C@H](CO)NC(=O)[C@@H](N)CCCNC(=N)N)NC(=O)[C@H](CCCCNC(=O)[C@H](CCCNC(=N)N)NC(=O)[C@H](Cc1ccc(O)cc1)NC(=O)[C@H](CC(C)C)NC(=O)[C@@H]1CCCN1C(=O)[C@H](CC(N)=O)NC(=O)[C@H](CCCCN)NC(=O)[C@H](C)NC(=O)[C@H](CCCCN)NC(=O)[C@H](CO)NC(=O)[C@@H](N)CCCNC(=N)N)NC(=O)[C@H](CCCNC(=N)N)NC(=O)[C@H](Cc1ccc(O)cc1)NC(=O)[C@H](CC(C)C)NC(=O)[C@@H]1CCCN1C(=O)[C@H](CC(N)=O)NC(=O)[C@H](CCCCN)NC(=O)[C@H](C)NC(=O)[C@H](CCCCN)NC(=O)[C@H](CO)NC(=O)[C@@H](N)CCCNC(=N)N)C(=O)NCCCC[C@H](NC(=O)[C@H](CCCCNC(=O)[C@H](CCCNC(=N)N)NC(=O)[C@H](Cc1ccc(O)cc1)NC(=O)[C@H](CC(C)C)NC(=O)[C@@H]1CCCN1C(=O)[C@H](CC(N)=O)NC(=O)[C@H](CCCCN)NC(=O)[C@H](C)NC(=O)[C@H](CCCCN)NC(=O)[C@H](CO)NC(=O)[C@@H](N)CCCNC(=N)N)NC(=O)[C@H](CCCCNC(=O)[C@H](CCCCNC(=O)[C@H](CCCNC(=N)N)NC(=O)[C@H](Cc1ccc(O)cc1)NC(=O)[C@H](CC(C)C)NC(=O)[C@@H]1CCCN1C(=O)[C@H](CC(N)=O)NC(=O)[C@H](CCCCN)NC(=O)[C@H](C)NC(=O)[C@H](CCCCN)NC(=O)[C@H](CO)NC(=O)[C@@H](N)CCCNC(=N)N)NC(=O)[C@H](CCCNC(=N)N)NC(=O)[C@H](Cc1ccc(O)cc1)NC(=O)[C@H](CC(C)C)NC(=O)[C@@H]1CCCN1C(=O)[C@H](CC(N)=O)NC(=O)[C@H](CCCCN)NC(=O)[C@H](C)NC(=O)[C@H](CCCCN)NC(=O)[C@H](CO)NC(=O)[C@@H](N)CCCNC(=N)N)NC(=O)[C@H](CCCCNC(=O)[C@H](CCCNC(=N)N)NC(=O)[C@H](Cc1ccc(O)cc1)NC(=O)[C@H](CC(C)C)NC(=O)[C@@H]1CCCN1C(=O)[C@H](CC(N)=O)NC(=O)[C@H](CCCCN)NC(=O)[C@H](C)NC(=O)[C@H](CCCCN)NC(=O)[C@H](CO)NC(=O)[C@@H](N)CCCNC(=N)N)NC(=O)[C@H](CCCNC(=N)N)NC(=O)[C@H](Cc1ccc(O)cc1)NC(=O)[C@H](CC(C)C)NC(=O)[C@@H]1CCCN1C(=O)[C@H](CC(N)=O)NC(=O)[C@H](CCCCN)NC(=O)[C@H](C)NC(=O)[C@H](CCCCN)NC(=O)[C@H](CO)NC(=O)[C@@H](N)CCCNC(=N)N)C(=O)NCCC(N)=O [Dend 10-10(4)]
remaining activity at 50 µM ([1]; final concentration 50 μM, read-out: ERK2 % activity relative to control): 47% | inhibition at 1 µM ([2]; dendrimer conc. 1 μM, read-out: Percentage (%) kinase inhibition PI3K P110δ): 56% | inhibition at 1 µM ([3]; dendrimer conc. 1 μM, read-out: Percentage (%) kinase inhibition PI3K P110β): 61% | PIK3 beta % activity relative to control ([3]; final concentration 50 μM): 83% | inhibition at 1 µM ([4]; dendrimer conc. 1 μM, read-out: Percentage (%) kinase inhibition c-RAF): 71% | inhibition at 1 µM ([5]; dendrimer conc. 1 μM, read-out: Percentage (%) kinase inhibition PKB beta): 70% | inhibition at 1 µM ([6]; dendrimer conc. 1 μM, read-out: Percentage (%) kinase inhibition PKB gamma): 99% | inhibition at 1 µM ([7]; dendrimer conc. 1 μM, read-out: Percentage (%) kinase inhibition PKC alpha): 78% | inhibition at 1 µM ([8]; dendrimer conc. 1 μM, read-out: Percentage (%) kinase inhibition PKC beta I): 67% | inhibition at 1 µM ([9]; dendrimer conc. 1 μM, read-out: Percentage (%) kinase inhibition PKC beta II): 75%
